biological target: T1, c-kit (Homo sapiens, UniProt P10721); test: Mo7e cell proliferation assay (SCF dependent proliferation); assay type: cell-based; conditions: Table 2; Mo7e cells stimulated with human recombinant SCF, 48 hours; 1% FBS
T1 construct: human Mo7e cells which endogenously express c-kit; endogenous in cells; host or cells: human Mo7e cells (promegakaryocytic leukemia line), stimulated with human recombinant SCF
Description: Compounds of Formula (I) and Formula (II) provided herein were assayed to measure their capacity to inhibit c-kit and PDGFR kinases using the appropriate assay described below: c-Kit inhibition was evaluated using the Mo7e cell proliferation assay, and PDGFR inhibition was evaluated using the Rat A10 cell proliferation assay and the Human TG/HA-VSMC cell proliferation assay.
The compounds of Table 1 and Table 2 were tested for inhibition of SCF dependent proliferation using human Mo7e cells which endogenously express c-kit in a 384 well format. […] After 48 hours of incubation at 37° C., cell viability was measured by adding 25 uL of CellTiter Glo (Promega) to the cells and the luminescence was measured by a CLIPR CCD camera (Molecular Devices).
The IC50 value is given as that concentration of the test compound in question that provoke a response halfway between the baseline and maximum responses.

T1 sequence (P10721 26-976): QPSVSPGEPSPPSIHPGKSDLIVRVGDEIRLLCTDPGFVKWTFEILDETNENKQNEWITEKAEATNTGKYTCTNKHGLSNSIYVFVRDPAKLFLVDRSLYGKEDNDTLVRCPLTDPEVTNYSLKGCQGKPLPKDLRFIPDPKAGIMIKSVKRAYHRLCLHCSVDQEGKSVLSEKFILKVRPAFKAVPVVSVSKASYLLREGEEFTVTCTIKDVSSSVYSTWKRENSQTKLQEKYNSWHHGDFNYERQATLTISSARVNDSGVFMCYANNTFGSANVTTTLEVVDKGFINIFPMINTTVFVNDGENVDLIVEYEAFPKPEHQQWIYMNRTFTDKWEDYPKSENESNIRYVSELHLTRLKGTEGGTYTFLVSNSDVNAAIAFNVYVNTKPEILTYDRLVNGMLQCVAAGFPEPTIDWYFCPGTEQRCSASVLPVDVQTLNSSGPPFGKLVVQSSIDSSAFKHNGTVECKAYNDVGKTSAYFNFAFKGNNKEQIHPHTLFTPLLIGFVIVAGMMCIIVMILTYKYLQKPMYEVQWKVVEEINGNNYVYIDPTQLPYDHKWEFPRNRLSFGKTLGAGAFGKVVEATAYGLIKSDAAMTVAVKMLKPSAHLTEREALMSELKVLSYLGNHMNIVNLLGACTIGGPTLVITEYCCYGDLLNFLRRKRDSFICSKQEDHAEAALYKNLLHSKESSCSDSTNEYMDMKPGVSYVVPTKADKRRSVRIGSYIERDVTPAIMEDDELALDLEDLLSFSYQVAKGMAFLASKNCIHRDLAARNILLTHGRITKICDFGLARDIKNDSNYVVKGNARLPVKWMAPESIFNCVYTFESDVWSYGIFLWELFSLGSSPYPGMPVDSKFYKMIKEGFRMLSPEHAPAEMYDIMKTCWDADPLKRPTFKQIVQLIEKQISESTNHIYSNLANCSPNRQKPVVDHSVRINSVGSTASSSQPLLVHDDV

| SMILES | IC50 |
| --- | --- |
| Cc1ccc(-c2noc(-c3ccc(N4CCOCC4)cc3)n2)cc1NC(=O)c1cnc2ccccn12 [F65, N-(2-methyl-5-{5-[4-(morpholin-4-yl)phenyl]-1,2,4-oxadiazol-3-yl}phenyl)imidazo[1,2-a]pyridine-3-carboxamide] | 1.08 µM |
| Cc1ccc(-c2noc(CCc3nn[nH]n3)n2)cc1NC(=O)c1cnc2ccccn12 [F67] | > 10 µM |
| Cc1ccc(-c2nc(-c3ccc(F)cc3)no2)cc1NC(=O)c1cnc2ccccn12 [F68] | > 10 µM |
| Cc1ccc(-c2noc(-c3ccc(C)c(NC(=O)c4cnc5ccccn45)c3)n2)cc1F [F69] | > 10 µM |
| Cc1ccc(-c2nc(-c3ccncc3)no2)cc1NC(=O)c1cnc2ccccn12 [F70] | > 10 µM |
| Cc1ccc(-c2nc(-c3cccnc3)no2)cc1NC(=O)c1cnc2ccccn12 [F71] | > 10 µM |
| Cc1ccc(-c2nc(-c3ccc(OC(F)(F)F)cc3)no2)cc1NC(=O)c1cnc2ccccn12 [F72] | > 10 µM |
